Assays:
[1] = target: T1, TRPV3 (Homo sapiens, UniProt Q8NET8); assay: Intermolecular BRET assay, Luc-TRPV3/YFP-CaM in HEK293T cells; format: cell-based; design: expressed in transfected cells; host or cells: HEK293T; details: dose-response; for BRET signal between YFP-CaM and Luc-TRPV3 on challenge: FIG. 1
T1 sequence (Q8NET8 1-790): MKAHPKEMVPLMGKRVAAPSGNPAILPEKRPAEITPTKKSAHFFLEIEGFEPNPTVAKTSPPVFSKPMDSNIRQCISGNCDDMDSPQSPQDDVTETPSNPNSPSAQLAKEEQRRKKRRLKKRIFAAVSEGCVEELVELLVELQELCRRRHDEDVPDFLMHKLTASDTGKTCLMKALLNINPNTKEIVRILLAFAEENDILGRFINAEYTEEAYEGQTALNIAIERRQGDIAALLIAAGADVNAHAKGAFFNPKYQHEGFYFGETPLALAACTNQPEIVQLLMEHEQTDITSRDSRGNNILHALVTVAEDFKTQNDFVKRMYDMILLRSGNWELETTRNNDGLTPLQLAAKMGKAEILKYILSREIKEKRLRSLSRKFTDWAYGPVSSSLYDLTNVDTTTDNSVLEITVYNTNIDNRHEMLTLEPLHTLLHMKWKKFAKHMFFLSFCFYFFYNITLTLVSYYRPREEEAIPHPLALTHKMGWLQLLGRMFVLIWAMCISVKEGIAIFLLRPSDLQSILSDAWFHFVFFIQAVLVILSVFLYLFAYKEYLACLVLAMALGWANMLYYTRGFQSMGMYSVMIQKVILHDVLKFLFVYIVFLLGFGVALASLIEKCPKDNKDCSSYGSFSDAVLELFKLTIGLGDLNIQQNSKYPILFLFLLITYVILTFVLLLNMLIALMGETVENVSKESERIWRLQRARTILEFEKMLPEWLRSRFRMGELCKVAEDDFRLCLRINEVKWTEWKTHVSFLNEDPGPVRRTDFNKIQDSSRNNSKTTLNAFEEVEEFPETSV
Source text: In order to generate the BRET constructs, super Yellow Fluorescent Protein 2 and Renilla Luciferase II were used to improve the brightness of the assay. They were referred as YFP and Luc for short in the rest of the manuscript. The cDNA of Luc and YFP were first cloned together using a three-piece ligation in the BamHI/XhoI site of pcDNA3.1(+) (Invitrogen, Carlsbad, Calif., USA), yielding two expression vectors pcDNA3.1 YFP-Luc where YFP was cloned in-fusion at the N-terminal of Luc, and pcDNA3.1 Luc-YFP where Luc was cloned in-fusion at the N-terminal of YFP. Both YFP and Luc were amplified by PCR from the pcDNA3-YFP-EPAC-Luc vector. Luc was cloned either at the N-terminal of YFP as a HindIII-EcoRI fragment (primers used: “Luc_HindIII_ATGN-term sense” and “Luc_no Stop_EcoRI_N-term antisense”) or at the COOH-terminal of YFP as an EcoRI-XhoI fragment (primer used: “Luc_EcoRI_ATG_C-term sense” and “Luc_XhoI_Stop_C-term antisense”). In parallel, YFP was cloned either at the N-terminal of Luc as a HindIII-EcoRI fragment (primers used: “YFP_HindIII_ATG_N-term sense” and “YFP_no Stop_EcoRI_N-term antisense”) or at the COOH-terminal of Luc as a EcoRI-XhoI fragment (primer used: “YFP_EcoRI_ATG_C-term sense” and “YFP_XhoI_Stop_C-term antisense”). The sequence joining Luc and YFP sequence encoded […] (SEQ ID NO: 18) as a linker, and contained an AgeI restriction site. The YFP-hTRPV1-Luc expression vector was obtained by subcloning the human TRPV1 cDNA from the pDONR201-hTRPV1 vector (Harvard Medical School PlasmID Repository, clone HsCD00081472) as an EcoRI PCR fragment in the EcoRI site of the vector pcDNA3.1 YFP-Luc (primer used: “hTRPV1_EcoRI_Fus_Sense” and “hTRPV1_EcoRI_Fus_antisense”). The hTRPV1-Luc expression vector was obtained by subcloning the cDNA of hTRPV1 as a HindIII-EcoRI fragment in place of the YFP in the HindIII-EcoRI site of the pcDNA3.1 YFP-Luc vector (primer used: “hTRPV1_HindIII_ATG_Sense” and “hTRPV1_EcoRI_Fus_antisense”). […]
HEK293T cells were maintained in Dulbecco's modified Eagle's medium-high Glucose (DMEM) (D6429, Sigma) supplemented with 10% fetal bovine serum, 100 units mL-1 penicillin and streptomycin. […] After overnight incubation, transfected cells were then detached, resuspended in DMEM w/o red phenol (Ref 21063-029, ThermoFisher scientific, Waltham, Mass., USA) and replated at a density of 10^5 cells per well in 96-well white plates with clear bottoms (Greiner Bio one, Courtaboeuf, France) pre-treated with D-polylysine (Sigma) for reading with the Tristar2 luminometer (Berthold Technologies, Bad Wildbad, Germany) or onto 12 mm diameter glass coverslips (Knittel Glass, Braunschweig, Germany) treated with poly-L-lysine for the reading with the SpectraPro 2300i spectrometer (Acton Optics, Acton, Mass., USA). […]

[2] = target: T2, TRPV1 (Homo sapiens, UniProt Q8NER1); assay: Calcium assay in transfected HEK293T cells; format: cell-based; details: cells expressing TRPV1, YFP-TRPV1-Luc or TRPV1-Luc; not in mock-transfected cells
T2 construct: expressed in transfected cells; host or cells: HEK293T
T2 sequence (Q8NER1 whole entry): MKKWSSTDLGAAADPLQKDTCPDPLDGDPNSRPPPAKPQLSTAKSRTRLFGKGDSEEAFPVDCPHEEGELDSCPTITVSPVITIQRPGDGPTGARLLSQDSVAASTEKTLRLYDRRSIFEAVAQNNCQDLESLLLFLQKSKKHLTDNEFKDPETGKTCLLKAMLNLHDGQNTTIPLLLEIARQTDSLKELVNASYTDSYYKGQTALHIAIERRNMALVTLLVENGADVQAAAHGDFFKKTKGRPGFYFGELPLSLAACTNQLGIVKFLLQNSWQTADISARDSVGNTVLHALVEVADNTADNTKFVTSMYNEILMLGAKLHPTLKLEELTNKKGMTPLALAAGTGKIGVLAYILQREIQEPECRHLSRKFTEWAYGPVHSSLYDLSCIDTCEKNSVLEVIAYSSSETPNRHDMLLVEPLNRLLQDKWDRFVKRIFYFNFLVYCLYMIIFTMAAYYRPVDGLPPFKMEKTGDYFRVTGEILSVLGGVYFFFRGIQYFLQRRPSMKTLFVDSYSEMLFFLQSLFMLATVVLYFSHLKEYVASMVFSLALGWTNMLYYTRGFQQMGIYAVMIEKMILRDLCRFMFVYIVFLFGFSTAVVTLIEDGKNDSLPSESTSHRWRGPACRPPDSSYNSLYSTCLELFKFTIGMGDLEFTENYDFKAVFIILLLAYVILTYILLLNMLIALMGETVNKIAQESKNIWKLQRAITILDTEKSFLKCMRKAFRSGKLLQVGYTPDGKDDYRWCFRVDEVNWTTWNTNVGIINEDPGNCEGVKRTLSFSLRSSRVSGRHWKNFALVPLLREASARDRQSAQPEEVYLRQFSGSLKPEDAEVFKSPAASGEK
Description: TRP channel activation was evaluated in transfected HEK293T human embryonic-kidney cells. […] For this purpose, we measured calcium entry in mock-transfected or transfected HEK293T cells with either native TRPV1 or the BRET constructs, YFP-TRPV1-Luc or TRPV1-Luc.

Row | SMILES | BRET signal between YFP-CaM and Luc-TRPV3 on challenge [1] | Cytosolic calcium concentration [2] | EC50 ([1]; FIG. 1, read-out: EC50 of BRET signal increase between YFP-CaM and Luc-TRPV3)
1 | COc1cc(CNC(=O)CCCC/C=C/C(C)C)ccc1O [CAPS, Capsaicin] | no dose-dependent BRET increase | rapid, maintained increase | 
2 | CCN(CC)CCOC(=O)C(c1ccccc1)C1CCCCC1 (centres unmarked) [Drofenine] | dose-dependent increase |  | 206 µM
3 | CC(C)C[C@H](NC(=O)c1cc2ccccc2s1)C(=O)N1CCN(C(=O)[C@H](CO)NS(=O)(=O)c2ccc(Cl)cc2Cl)CC1 [GSK1016790A] | no dose-dependent BRET increase |  | 

Reference: patent publication US20190353647A1, “NOVEL REAL-TIME MULTIPLEXED, MULTI-COLOR BIOLUMINESCENCE RESONANCE ENERGY TRANSFER ASSAY, APPARATUS, AND USES THEREOF” (Universite de Bordeaux, priority 2016, published 2019)
